The text below walks through data of patent US20110312945A1, “CRTH2 MODULATORS” (priority 2008, published 2011).

In general, IC50 refers to the midpoint of a concentration-inhibition curve. As a reminder, the ED50 is the dose at which the effect has come halfway, by size or by number of responders. The low end stands for greater potency, the high end for weaker potency.

Assay [1] has as its target T1, CRTH2 (Homo sapiens, UniProt Q9Y5Y4).
T1 construct: polymorphonuclear cells (0.5 ml; 10^6/ml cells) in PBS containing 0.9 mM CaCl2 and 0.5 mM MgCl2; endogenous in cells; host or cells: polymorphonuclear cells (eosinophils gated by flow cytometry)
T1 sequence (Q9Y5Y4 1-395): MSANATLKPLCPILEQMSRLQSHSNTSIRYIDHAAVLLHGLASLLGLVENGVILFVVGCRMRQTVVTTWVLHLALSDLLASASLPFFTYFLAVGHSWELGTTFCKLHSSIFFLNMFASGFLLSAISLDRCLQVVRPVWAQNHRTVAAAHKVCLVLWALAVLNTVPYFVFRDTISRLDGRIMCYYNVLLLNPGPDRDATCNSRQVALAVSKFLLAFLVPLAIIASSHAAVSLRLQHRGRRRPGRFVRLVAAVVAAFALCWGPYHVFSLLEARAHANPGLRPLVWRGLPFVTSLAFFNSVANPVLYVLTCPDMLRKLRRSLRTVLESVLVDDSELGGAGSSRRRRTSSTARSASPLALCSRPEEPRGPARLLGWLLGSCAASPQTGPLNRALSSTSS
Kind of assay: DPBS CD11b Antagonist Assay. To be noted: polymorphonuclear cells in PBS, eosinophil CD11b expression, challenge with 15R-Methyl-PGD2 (10 nM). The assay is classed as cell-based. Here is the method:
DPBS CD11b Antagonist Assay. The potential CRTH2 antagonist activity of certain compounds was tested using a CD11b expression assay using essentially the method described by Monneret et al. (J Pharmacol Exp Ther 304:349-55, 2003). Briefly, polymorphonuclear cells (0.5 ml; 10^6/ml cells) in PBS containing 0.9 mM CaCl2 and 0.5 mM MgCl2) were preincubated with various concentrations of test compounds at room temperature for 10 minutes before they were challenged with the agonist 15R-Methyl-PGD2 (10 nM). The incubations were terminated by the addition of ice-cold FACSFlow (BD Biosciences; Cat# 342003) and centrifugation (400 g for 5 minutes at 4° C.). The cells were then incubated for 30 minutes at 4° C. with a mixture of PE-labeled mouse anti-human VLA-4 (5 μl; BD Biosciences) and FITC-labeled mouse anti-human CD11b (10 μl; Beckman Coulter). The cells were then incubated with Optilyse C (0.25 ml; Beckman Coulter) for 15 minutes, centrifuged, and then fixed in PBS (0.4 ml; calcium and magnesium free) containing 1% formaldehyde. The distribution of fluorescence intensities among 60,000 cells was measured by flow cytometry. Eosinophils were gated out on the basis of their granularity (high side scatter) and labeling with VLA-4 (PE fluorescence). CD11b was then measured in the eosinophil region on the basis of fluorescence due to FITC. All data were corrected for the value obtained for the corresponding isotope control antibody.

The test system of assay [2] is DK-PGD2-induced systemic eosinophilia. Kind of assay: DK-PGD2-Induced Systemic Eosinophilia in Rats. Format: in vivo. As to conditions: Rattus norvegicus, Eosinophil; female Sprague-Dawley rats, oral dosing 30 min before intracardiac 10 μg DK-PGD2, blood eosinophils at 60 min. How it is done:
DK-PGD2-Induced Systemic Eosinophilia in Rats. Female Sprague-Dawley rats (175-250 g) were dosed orally with test compound (or vehicle). Thirty minutes after dosing, animals were anaesthetized with isoflurane. Following induction of anaesthesia, animals received an intracardiac injection of 10 μg DK-PGD2 in 0.3 ml heparinized (10 U/ml) saline. Control animals received an injection of 0.3 ml heparinized saline. Sixty minutes after the intracardiac injection, animals were again anesthetized with isoflurane and a blood sample was drawn from the abdominal aorta (into heparin) while the rat was anaesthetized but not dead. An aliquot of blood (500 μL) was mixed with an equal volume of 4% dextran (mw 500,000) and the erythrocytes were allowed to settle. A cytospin preparation was made from the resulting leukocyte rich fraction (top) and the cytospin was fixed and stained with Diff-Quick Stain kit (Dade Behring Inc, Newark, Del.). An aliquot of the leukocyte rich fraction was taken for total leukocyte count using flow cytometer (Guava EasyCyte Mini system). Differential leukocyte counts were obtained from the cytospin preparations. Blood eosinophil numbers were determined from the total leukocyte count and the percentage eosinophils.

Assay [3] addresses T1, CRTH2. Kind of assay: Human Whole Blood CD11b Antagonist Assay. Format: cell-based. To be noted: eosinophil CD11b expression, challenge with 15R-Methyl-PGD2 (10 nM). How it is done:
Human Whole Blood CD11b Antagonist Assay (modified from Nicholson, et al. Pulmonary Pharmacology and Therapeutics: 20 (2007); 52-59). The potential CRTH2 antagonist activity of certain compounds was tested in human whole blood using an assay that tests the ability of the compounds to block the CD11b expression in eosinophils by 15-R-methyl-PGD2. A CRTH2 antagonist should block CD11b expression by subsequently added 15-Methyl-PGD2. Human whole blood (200 μL) was incubated at 37° C. for 10 minutes in the presence of various concentrations of test compounds before being challenged with the agonist 15R-Methyl-PGD2 (10 nM). Reactions were terminated by the addition of ice-cold PBS+0.5% BSA+2 mMEDTA (1 mL) and centrifugation (300×g for 5 minutes at 4° C.) Cells were then incubated at 4° C. for 10 min in the presence of human IgG. Cells were then incubated for 30-45 min with a mixture of PE-Cy5-labeled mouse anti-human CD16 (10 ul; BD Biosciences) and FITC-labeled mouse anti-human CD11b (10 μL; Beckman Coulter.) After rinsing (1 mL ice-cold PBS+0.5% BSA+2 mMEDTA), red blood cells were lysed by the addition of 1 mL ice-cold H2O to the cell pellet for 30 sec-1 min immediately followed by the addition of 3.5% NaCl (300 μL.) Cells were then rinsed (2x−1 ml ice cold PBS+0.5% BSA+2 mMEDTA) and fixed in PBS containing 1% formaldehyde. The distribution of fluorescence intensities was measured by flow cytometry. Eosinophils were gated out on the basis of their granularity (high side scatter) and absence of CD-16. CD11b was then measured on this eosinophil population on the basis of fluorescence due to FITC.

`Cc1c(Cc2ccc(S(=O)(=O)N3CCCC3)cc2)c2c(n1CC(=O)O)CCCC2` [Example I-1, 2-(2-Methyl-3-(4-(pyrrolidin-1-ylsulfonyl)benzyl)-4,5,6,7-tetrahydro-1H-indol-1-yl)acetic acid]: the IC50 against CRTH2 [1] was less than 5 nM; at CRTH2 [3], 5 to 100 nM. For the same compound, in assay [2], the ED50 lay within 1 to 10 mg/kg.
Taken in the same sequence, the figures for `Cc1c(Cc2ccc(S(=O)(=O)N3CCCC3)cc2)c2c(n1CC(=O)O)CCCCC2` [Example I-20, 2-(2-Methyl-3-(4-(pyrrolidin-1-ylsulfonyl)benzyl)-5,6,7,8-tetrahydrocyclohepta[b]pyrrol-1(4H)-yl)acetic acid] were 5 to 100 nM, 5 to 100 nM and less than 1 mg/kg.
On to `Cc1c(Cc2ccccc2S(=O)(=O)N2CCOCC2)c2c(n1CC(=O)O)CCC(C)(C)C2` [Example I-17, 2-(2,5,5-Trimethyl-3-(2-(morpholinosulfonyl)benzyl)-4,5,6,7-tetrahydro-1H-indol-1-yl)acetic acid], for which the IC50 was less than 5 nM on CRTH2 [1] and 5 to 100 nM against CRTH2 [3]. This compound also showed a median effective dose (ED50) in assay [2] of less than 1 mg/kg.
Turning to `Cc1c(Cc2ccccc2S(=O)(=O)N2CCCC2)c2c(n1CC(=O)O)CC(C)(C)CC2=O` [Example I-43, 2-(2,6,6-trimethyl-4-oxo-3-(2-(pyrrolidin-1-ylsulfonyl)benzyl)-4,5,6,7-tetrahydro-1H-indol-1-yl)acetic acid], the values for the IC50 against CRTH2 [1] and against CRTH2 [3] were less than 5 nM and 5 to 100 nM, respectively. For the same compound, the median effective dose (ED50) in assay [2] was less than 1 mg/kg.
As for `Cc1c(Cc2ccc(S(=O)(=O)N3CCCC3)cc2)c2c(n1CC(=O)O)CCC2` [Example I-19, 2-(2-Methyl-3-(4-(pyrrolidin-1-ylsulfonyl)benzyl)-5,6-dihydrocyclopenta[b]pyrrol-1(4H)-yl)acetic acid], the IC50 on CRTH2 [1] lay within 5 to 100 nM. The compound also displayed a 50% effective dose (ED50) in assay [2] of less than 1 mg/kg.
Taken in the same sequence, the figures for `CCOC(=O)Cn1c(C)c(Cc2ccccc2S(=O)(=O)N2CCCC2)c2c1CC(C)(C)CC2=O` [Example I-51, ethyl 2-(2,6,6-trimethyl-4-oxo-3-(2-(pyrrolidin-1-ylsulfonyl)benzyl)-4,5,6,7-tetrahydro-1H-indol-1-yl)acetate] were 100 to 500 nM and less than 1 mg/kg.
`Cc1c(Cc2ccccc2S(=O)(=O)c2ccccc2)c2c(n1CC(=O)O)CCC(C)(C)C2` [Example I-9, 2-(2,5,5-Trimethyl-3-(2-(phenylsulfonyl)benzyl)-4,5,6,7-tetrahydro-1H-indol-1-yl)acetic acid] yielded an ED50 in assay [2] of less than 1 mg/kg.
In turn, `Cc1c(Cc2ccccc2S(=O)(=O)N2CCCC2)c2c(n1CC(=O)O)CCCCC2` [Example I-22, 2-(2-Methyl-3-(2-(pyrrolidin-1-ylsulfonyl)benzyl)-5,6,7,8-tetrahydrocyclohepta[b]pyrrol-1(4H)-yl)acetic acid] came in with an IC50 against CRTH2 [1] of 5 to 100 nM. The same compound returned an ED50 in assay [2] of less than 1 mg/kg.
For the compound `Cc1c(Cc2ccccc2S(=O)(=O)N2CCOCC2)c2c(n1CC(=O)O)CCC2` [Example I-23, 2-(2-methyl-3-(2-(morpholinosulfonyl)benzyl)-5,6-dihydrocyclopenta[b]pyrrol-1(4H)-yl)acetic acid], the ED50 in assay [2] fell in the range of 1 to 10 mg/kg.
On to `Cc1c(Cc2ccccc2S(=O)(=O)N2CCCC2)c2c(n1CC(=O)OC(C)C)CC(C)(C)CC2=O` [Example I-55, isopropyl 2-(2,6,6-trimethyl-4-oxo-3-(2-(pyrrolidin-1-ylsulfonyl)benzyl)-4,5,6,7-tetrahydro-1H-indol-1-yl)acetate], for which the IC50 against CRTH2 [1] lay in the range of 100 to 500 nM. Also, the ED50 in assay [2] is less than 1 mg/kg.
Taken in the same sequence, the figures for `Cc1c(Cc2ccccc2S(=O)(=O)N(C)c2ccccc2)c2c(n1CC(=O)O)CC(C)(C)CC2=O` [Example I-49, 2-(2,6,6-trimethyl-3-(2-(N-methyl-N-phenylsulfamoyl)benzyl)-4-oxo-4,5,6,7-tetrahydro-1H-indol-1-yl)acetic acid] were less than 5 nM and 1 to 10 mg/kg.
